Columns and labels:
Type in all cases: cell-based
Details in all cases: Homo sapiens, LPS 100 ng/mL
IL-6 = assay: Inhibition of IL-6 in PMA-differentiated, LPS-stimulated THP-1 cells (ELISA of cell supernatant)
Experimental: (§1) (1) Cell culture and inoculation: A stock solution of PMA at 1 mg/mL was diluted with serum-free RP1640 medium to prepare a 100 ng/mL PMA solution. Normal cultured THP-1 cells were centrifuged, resuspended in a complete medium (RP1640 medium containing 10% FBS), and counted. The cell density was adjusted to 2×10^6 cells/mL. An equal volume of 100 ng/mL PMA solution was then added, resulting in a cell density of 1×10^6 cells/mL and a final PMA concentration of 50 ng/mL. 100 μL of the cell suspension was seeded into each well of a 96-well cell culture plate with 1×10^5 cells per well. The 96-well cell culture plate was then incubated at 37° C. in a 5% CO2 atmosphere for 24 hours.
(§2) (2) Drug treatment of cells: On the second day, LPS was added to the complete medium to adjust the final concentration to 100 ng/mL, and the compound was prepared using this LPS-containing medium. The compound was added to the appropriate cell wells according to the prepared concentration gradient. The positive control group (LPS+) was a culture medium solution containing a final concentration of 100 ng/mL LPS and 0.1% DMSO without drugs, while the negative control group (LPS-) was a culture medium solution containing 0.1% DMSO without LPS. The volume in each well was 100 μL.
(§3) (3) Test sample collection: The mixture was centrifuged at 1000 rpm for 5 minutes and the cell supernatant and cell precipitate were collected separately. The cell supernatant was used to detect TNF-α and IL-6, and the cell precipitate was collected for IL-1β detection. After collecting the cell supernatant, the remaining liquid in the wells was discarded and 100 μL of cell lysis solution (20 mM Tris 8.0; 2 mM EDTA; 0.5% Triton X-100) was added to each well for complete lysis.
(§4) (4) Sample detection: The enzyme-linked immunosorbent assay (ELISA) was used to detect the content of each cytokine. The specific steps were performed according to the instructions provided in the corresponding kit manuals. The catalog numbers of kits are as follows: • Human TNF-alpha Quantikine ELISA Kit, Catalog # STA00D • Human IL-1 beta/IL-1F2 Quantikine ELISA Kit, Catalog # SLB50 • Human IL-6 Quantikine ELISA Kit, Catalog # S6050.
(§5) (5) Data analysis: The in vitro inhibitory activity of the compounds was calculated using the following formula: […]

IL-1β = assay: Inhibition of IL-1β in PMA-differentiated, LPS-stimulated THP-1 cells (ELISA of cell lysate)
Experimental: as §1, §2, §3, §4, §5

TNF-α = assay: Inhibition of TNF-α in PMA-differentiated, LPS-stimulated THP-1 cells (ELISA of cell supernatant)
Experimental: as §1, §2, §3, §4, §5

| IC50 (IL-6; THP-1, Table 7, PMA 50 ng/mL) [µM] | IC50 (IL-1β; THP-1, Table 7, PMA 50 ng/mL) [µM] | IC50 (TNF-α; THP-1, Table 7, PMA 50 ng/mL) [µM] | IC50 (IL-6; THP-1, Table 8, PMA 50 ng/mL) [µM] | IC50 (IL-1β; THP-1, Table 8, PMA 50 ng/mL) [µM] | IC50 (TNF-α; THP-1, Table 8, PMA 50 ng/mL) [µM] | Structure (SMILES) |
| --- | --- | --- | --- | --- | --- | --- |
| 2.06 | 30.1 | 12.2 | – | – | – | CC(CCCN1CC2(CCOCC2)C1)Nc1ccnc2cc(Cl)ccc12 (stereo not drawn) [Example 7, N-(5-(7-Oxa-2-azaspiro[3.5]nonan-2-yl)pentan-2-yl)-7-chloroquinolin-4-amine] |
| 0.19 | 0.65 | 1.41 | – | – | – | CC(CCCN(CCO)Cc1ccc(F)cc1F)Nc1ncnc2cc(Cl)ccc12 (stereo not drawn) [Example 21, 2-((4-((7-Chloroquinazolin-4-yl)amino)pentyl)(2,4-difluorobenzyl)amino)ethan-1-ol] |
| 0.59 | 23.4 | 53.2 | – | – | – | CC(CCCN(CCO)Cc1ncco1)Nc1ncnc2cc(Cl)ccc12 (stereo not drawn) [Example 16, 2-((4-((7-Chloroquinazolin-4-yl)amino)pentyl)(oxazol-2-ylmethyl)amino)ethan-1-ol] |
| 3.95 | 19.5 | 25.6 | – | – | – | CCOc1ncccc1CNCCCC(C)Nc1ccnc2cc(Cl)ccc12 (stereo not drawn) [Example 5, N^4-(7-Chloroquinolin-4-yl)-N^1-((2-ethoxypyridin-3-yl)methyl)pentane-1,4-diamine] |
| 0.12 | 1.34 | 0.97 | – | – | – | CC(CCCN(CCO)Cc1ccc(C#N)cc1F)Nc1ccnc2cc(Cl)ccc12 (stereo not drawn) [Example 30, 4-(((4-((7-Chloroquinolin-4-yl)amino)pentyl)(2-hydroxyethyl)amino)methyl)-3-fluorobenzonitrile] |
| – | – | – | 0.34 | 63.8 | 34.9 | O=C1NC2(CCC2)C(=O)N1CCCCNc1ncnc2cc(Cl)ccc12 [Example 64, 7-(4-((7-Chloroquinazolin-4-yl)amino)butyl)-5,7-diazaspiro[3.4]octane-6,8-dione] |
| 0.53 | 5.78 | 2.17 | – | – | – | COC(=O)c1ccc(CN(CCO)CCCC(C)Nc2ccnc3cc(Cl)ccc23)cc1 (stereo not drawn) [Example 27, Methyl 4-(((4-((7-chloroquinolin-4-yl)amino)pentyl)(2-hydroxyethyl)amino)methyl)benzoate] |
| – | – | – | 19.9 | 110 | 96.1 | C[C@H](CCCN1C(=O)NC2(CC2)C1=O)Nc1ncnc2cc(Cl)ccc12 [Example 76, (R)-6-(4-((7-Chloroquinazolin-4-yl)amino)pentyl)-4,6-diazaspiro[2.4]heptane-5,7-dione] |
| 0.77 | 21.1 | 19.9 | – | – | – | COC(=O)c1ccc(CN(CCO)CCCCCNc2ncnc3cc(Cl)ccc23)cc1 [Example 44, Methyl 4-(((5-((7-chloroquinazolin-4-yl)amino)pentyl)(2-hydroxyethyl)amino)methyl)benzoate] |
| 0.86 | 23.1 | 31.7 | – | – | – | CC(CCCN1CCS(=O)(=O)CC1)Nc1ccnc2cc(Cl)ccc12 (stereo not drawn) [Example 1, 4-(4-((7-Chloroquinolin-4-yl)amino)pentyl)thiomorpholine-1,1-dioxide] |
| 0.68 | 10.9 | 11.2 | – | – | – | CC(CCCN(CCO)Cc1ccc(-n2cccn2)cc1)Nc1ccnc2cc(Cl)ccc12 (stereo not drawn) [Example 28, 2-((4-(1H-Pyrazol-1-yl)benzyl)(4-((7-chloroquinolin-4-yl)amino)pentyl)amino)ethan-1-ol] |
| 0.81 | 2.2 | 14.3 | – | – | – | CC(CCCN(CCO)Cc1ccccn1)Nc1ccnc2cc(Cl)ccc12 (stereo not drawn) [Example 19, 2-((4-((7-Chloroquinolin-4-yl)amino)pentyl)(pyridin-2-ylmethyl)amino)ethan-1-ol] |
